Reference: patent publication US12435061B2 (priority 2020, dated 2025)
Like-named read-outs stand apart in the source and are kept apart here.

Biological target: hTRPV3 (Homo sapiens (Human), UniProt Q8NET8)
Test: Whole-cell patch clamp, hTRPV3 Phase 1 / Phase 2 currents
Assay type: cell-based
Procedure, shortened: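 Currents are activated by 20 μM 2-APB or by perfusate at 28 °C or warmer, in Ringer's solution, and quantified at ±80 mV.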

[1] = Phase 1 current, inward, whole-cell patch clamp, read-out: hTRPV3 Patch P1 Inwd
[2] = Phase 1 current, read-out: hTRPV3 (nM) (Phase 1)
[3] = Phase 2 current, inward, whole-cell patch clamp, read-out: hTRPV3 Patch P2 Inwd
[4] = Phase 2 current, read-out: hTRPV3 (nM) (Phase 2)

hTRPV3, sequence (Q8NET8 whole entry): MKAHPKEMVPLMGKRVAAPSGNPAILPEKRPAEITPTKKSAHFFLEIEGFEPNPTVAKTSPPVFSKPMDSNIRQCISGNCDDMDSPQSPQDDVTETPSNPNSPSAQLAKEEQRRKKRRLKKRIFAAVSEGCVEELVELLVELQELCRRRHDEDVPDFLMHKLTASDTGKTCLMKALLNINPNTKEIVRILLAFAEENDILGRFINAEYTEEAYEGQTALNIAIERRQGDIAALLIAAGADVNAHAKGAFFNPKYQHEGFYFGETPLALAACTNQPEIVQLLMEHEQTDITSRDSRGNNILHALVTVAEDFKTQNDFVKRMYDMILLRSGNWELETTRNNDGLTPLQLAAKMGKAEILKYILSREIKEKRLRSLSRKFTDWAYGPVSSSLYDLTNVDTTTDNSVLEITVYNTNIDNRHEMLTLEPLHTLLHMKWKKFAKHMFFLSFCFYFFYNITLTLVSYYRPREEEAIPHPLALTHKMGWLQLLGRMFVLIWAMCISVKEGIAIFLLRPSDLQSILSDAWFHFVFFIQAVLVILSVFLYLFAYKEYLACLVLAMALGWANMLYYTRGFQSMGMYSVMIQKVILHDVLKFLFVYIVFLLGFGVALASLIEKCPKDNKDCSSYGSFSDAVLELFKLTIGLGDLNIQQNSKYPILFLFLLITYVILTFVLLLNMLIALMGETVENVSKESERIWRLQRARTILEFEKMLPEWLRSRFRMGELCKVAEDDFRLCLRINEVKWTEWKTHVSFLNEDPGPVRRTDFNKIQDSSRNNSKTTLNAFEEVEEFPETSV

Row | SMILES | IC50 [1] | IC50 [2] | IC50 [3] | IC50 [4]
1 | O=C(c1ccc(CCO)c(N2CC[C@H](Oc3ncccc3Cl)C2)c1)c1ccccc1Cl [Compound 1-360, (S)-(2-chlorophenyl)(3-(3-(3-chloropyridin-2-yloxy)pyrrolidin-1-yl)-4-(2-hydroxyethyl)phenyl)methanone] | 100 to 1000 nM | 770 nM |  | 
2 | CCc1ccccc1Oc1ccc(N2CC[C@H](Oc3ccc(C#N)cn3)C2)c(CCO)c1 [Compound 1-361] | 100 to 1000 nM | 117 nM |  | 
3 | CC(C)c1ccccc1Oc1ccc(N2CC[C@H](Oc3ccc(C#N)cn3)C2)c(CCO)c1 [Compound 1-362] | 10 to 100 nM | 61.2 nM |  | 
4 | COc1ccccc1N1CCC(Nc2ncc(C(F)(F)F)cc2Cl)C1 (centres unmarked) [Compound 1-370, 3-chloro-N-(1-(2-methoxyphenyl)pyrrolidin-3-yl)-5-(trifluoromethyl)pyridin-2-amine] | > 1000 nM |  |  | 
5 | Cc1ccccc1N1CCC(Nc2ncc(C(F)(F)F)cc2Cl)C1 (centres unmarked) [Compound 1-371, 3-chloro-N-(1-o-tolylpyrrolidin-3-yl)-5-(trifluoromethyl)pyridin-2-amine] | > 1000 nM |  | > 1000 nM | 
6 | NC(=O)c1cc(-c2ccccc2)ccc1N1CC[C@H](Nc2ccc(C(F)(F)F)cn2)C1 [Compound 1-372, (S)-4-(3-(5-(trifluoromethyl)pyridin-2-ylamino)pyrrolidin-1-yl)biphenyl-3-carboxamide] | > 1000 nM |  | > 1000 nM | 
7 | NC(=O)c1cc(-c2ccccc2)ccc1N1CC[C@H](Nc2ncccc2Cl)C1 [Compound 1-373, (S)-4-(3-(3-chloropyridin-2-ylamino)pyrrolidin-1-yl)biphenyl-3-carboxamide] |  |  | 100 to 1000 nM | 669 nM
8 | NC(=O)c1cc(-c2ccccc2)cnc1N1CC[C@H](Nc2ccc(C(F)(F)F)cn2)C1 [Compound 1-374, (S)-5-phenyl-2-(3-(5-(trifluoromethyl)pyridin-2-ylamino)pyrrolidin-1-yl)nicotinamide] | > 1000 nM | > 3200 nM | > 1000 nM | > 3200 nM
9 | NC(=O)c1cc(-c2ccccn2)ccc1N1CC[C@H](Nc2ccc(C(F)(F)F)cn2)C1 [Compound 1-376, (S)-5-(pyridin-2-yl)-2-(3-(5-(trifluoromethyl)pyridin-2-ylamino)pyrrolidin-1-yl)benzamide] | > 1000 nM | > 3200 nM | > 1000 nM | > 3200 nM
10 | NC(=O)c1cc(-c2ccccc2)cnc1N1CC[C@@H](Nc2ccc(C(F)(F)F)cn2)C1 [Compound 1-378, (R)-5-phenyl-2-(3-(5-(trifluoromethyl)pyridin-2-ylamino)pyrrolidin-1-yl)nicotinamide] | > 1000 nM | > 3200 nM | > 1000 nM | > 3200 nM
11 | Cc1ccccc1-c1ccc(N2CC[C@H](Nc3ccc(C(F)(F)F)cn3)C2)c(CO)n1 [Compound 1-379, (S)-(6-o-tolyl-3-(3-(5-(trifluoromethyl)pyridin-2-ylamino)pyrrolidin-1-yl)pyridin-2-yl)methanol] | > 1000 nM | > 3200 nM | > 1000 nM | > 3200 nM
12 | CCc1ccccc1C(=O)c1ccc(N2CC[C@H](Nc3ncccc3Cl)C2)c(CO)c1 [Compound 1-384, (S)-(4-(3-(3-chloropyridin-2-ylamino)pyrrolidin-1-yl)-3-(hydroxymethyl)phenyl)(2-ethylphenyl)methanone] | 100 to 1000 nM | 495 nM |  | 
13 | CCc1ccccc1C(O)c1ccc(N2CC[C@H](Nc3ncccc3Cl)C2)c(CCO)c1 (stereo partly drawn) [Compound 1-385, 2-(2-((S)-3-(3-chloropyridin-2-ylamino)pyrrolidin-1-yl)-5-((2-ethylphenyl)(hydroxy)methyl)phenyl)ethanol] | > 1000 nM | > 3200 nM |  | 
14 | CCc1ccccc1C(O)c1ccc(N2CC[C@H](Nc3ncccc3Cl)C2)c(CO)c1 (stereo partly drawn) [Compound 1-386, (4-((S)-3-(3-chloropyridin-2-ylamino)pyrrolidin-1-yl)-3-(hydroxymethyl)phenyl)(2-ethylphenyl)methanol] | > 1000 nM | ~1260 nM | > 1000 nM | ~2150 nM
15 | CCc1ccccc1C(=O)c1ccc(N2CC[C@H](Nc3ncccc3Cl)C2)c(CCO)c1 [Compound 1-387, (S)-(4-(3-(3-chloropyridin-2-ylamino)pyrrolidin-1-yl)-3-(2-hydroxyethyl)phenyl)(2-ethylphenyl)methanone] | > 1000 nM | 1630 nM |  | 
16 | O=C(c1ccc(Cl)cc1)c1ccc(N2CC[C@H](Nc3ccc(F)cn3)C2)c(CCO)c1 [Compound 1-388, (S)-(4-chlorophenyl)(4-(3-(5-fluoropyridin-2-ylamino)pyrrolidin-1-yl)-3-(2-hydroxyethyl)phenyl)methanone] | > 1000 nM | > 3200 nM |  | 
17 | O=C(c1ccc(N2CC[C@H](Nc3ccc(F)cn3)C2)c(CCO)c1)c1ccccc1Cl [Compound 1-389, (S)-(2-chlorophenyl)(4-(3-(5-fluoropyridin-2-ylamino)pyrrolidin-1-yl)-3-(2-hydroxyethyl)phenyl)methanone] | > 1000 nM | > 3200 nM |  | 
18 | OCCc1cc(C(O)c2ccc(Cl)cc2)ccc1N1CC[C@H](Nc2ccc(F)cn2)C1 (stereo partly drawn) [Compound 1-391, 2-(5-((4-chlorophenyl)(hydroxy)methyl)-2-((S)-3-(5-fluoropyridin-2-ylamino)pyrrolidin-1-yl)phenyl)ethanol] | > 1000 nM | > 3200 nM |  | 
19 | OCCc1cc(C(O)c2cccc(Cl)c2)ccc1N1CC[C@H](Nc2ccc(F)cn2)C1 (stereo partly drawn) [Compound 1-392, 2-(5-((3-chlorophenyl)(hydroxy)methyl)-2-((S)-3-(5-fluoropyridin-2-ylamino)pyrrolidin-1-yl)phenyl)ethanol] | > 1000 nM | > 3200 nM |  | 
20 | O=C(c1cccc(Cl)c1)c1ccc(N2CC[C@H](Nc3ccc(F)cn3)C2)c(CCO)c1 [Compound 1-393, (S)-(3-chlorophenyl)(4-(3-(5-fluoropyridin-2-ylamino)pyrrolidin-1-yl)-3-(2-hydroxyethyl)phenyl)methanone] | > 1000 nM | ~2950 nM | > 1000 nM | > 3200 nM
21 | OCc1nc(-c2ccccc2)ccc1N1CC[C@H](Oc2nc(C(F)(F)F)cs2)C1 [Compound 1-396, (S)-(6-phenyl-3-(3-(4-(trifluoromethyl)thiazol-2-yloxy)pyrrolidin-1-yl)pyridin-2-yl)methanol] | > 1000 nM | 1130 nM | > 1000 nM | 2900 nM
22 | OCc1cc(-c2ccccc2)ccc1N1CC[C@H](Oc2ccc(C(F)(F)F)nn2)C1 [Compound 1-397, (S)-(4-(3-(6-(trifluoromethyl)pyridazin-3-yloxy)pyrrolidin-1-yl)biphenyl-3-yl)methanol] | > 1000 nM | 2740 nM | > 1000 nM | 1370 nM
23 | Cc1cccnc1CO[C@H]1CCN(c2ccc(-c3ccccc3)cc2CO)C1 [Compound 1-399] |  | > 3200 nM |  | 481 nM
24 | Cc1cccc(C(O)c2ccc(C3CCN(C(=O)c4ncccc4Cl)C3)c(CO)c2)c1 (centres unmarked) [Compound 2-2, (3-chloropyridin-2-yl)(3-(4-(hydroxy(m-tolyl)methyl)-2-(hydroxymethyl)phenyl)pyrrolidin-1-yl)methanone] | 100 to 1000 nM |  |  | 
